Test results published in the NIST ThermoML archive (doi:10.1021/je200508x).
± gives the expanded uncertainty stated by the source.

Details: 101.33 kPa, Crystal, Vacuum adiabatic calorimetry

Question: With `C=C(C)C(=O)[O][Sb]([O]C(=O)C(=C)C)([c]1ccccc1)([c]1ccccc1)[c]1ccccc1` [triphenyl-.lambda.5-stibanediyl bis(2-methylacrylate)] as the compound, how does the molar entropy (5 K) read?
Answer: Its molar entropy is 0.671 ± 0.029 J/K/mol.

Question: And the molar entropy (10 K)?
Answer: The molar entropy was 4.78 ± 0.07 J/K/mol.

Question: And the molar entropy (15 K)?
Answer: Its molar entropy is 12.1 ± 0.2 J/K/mol.

Question: And the molar entropy (20 K)?
Answer: The molar entropy was 21.52 ± 0.2 J/K/mol.

Question: And the molar entropy (25 K)?
Answer: Its molar entropy is 32.28 ± 0.24 J/K/mol.

Question: And the molar entropy (30 K)?
Answer: Its molar entropy is 44.02 ± 0.2 J/K/mol.

Question: What about the molar entropy (35 K) of the same compound?
Answer: Its molar entropy is 56.34 ± 0.23 J/K/mol.

Question: And the molar entropy (40 K)?
Answer: Its molar entropy is 69.14 ± 0.27 J/K/mol.

Question: And the molar entropy (45 K)?
Answer: The molar entropy was 82.14 ± 0.31 J/K/mol.

Question: What about the molar entropy (50 K) of the same compound?
Answer: Its molar entropy is 95.25 ± 0.35 J/K/mol.

Question: What about the molar entropy (60 K) of the same compound?
Answer: The molar entropy was 121.6 ± 0.4 J/K/mol.

Question: And the molar entropy (70 K)?
Answer: Its molar entropy is 147.7 ± 0.5 J/K/mol.

Question: And the molar entropy (80 K)?
Answer: Its molar entropy is 173.5 ± 0.6 J/K/mol.

Question: And the molar entropy (90 K)?
Answer: Its molar entropy is 198.9 ± 0.6 J/K/mol.

Question: What about the molar entropy (100 K) of the same compound?
Answer: Its molar entropy is 223.7 ± 0.6 J/K/mol.

Question: And the molar entropy (110 K)?
Answer: The molar entropy was 247.9 ± 0.7 J/K/mol.

Question: And the molar entropy (120 K)?
Answer: The molar entropy was 271.6 ± 0.7 J/K/mol.

Question: What about the molar entropy (130 K) of the same compound?
Answer: The molar entropy was 294.8 ± 0.7 J/K/mol.

Question: And the molar entropy (140 K)?
Answer: Its molar entropy is 317.4 ± 0.8 J/K/mol.

Question: What about the molar entropy (150 K) of the same compound?
Answer: The molar entropy was 339.7 ± 0.8 J/K/mol.

Question: What about the molar entropy (160 K) of the same compound?
Answer: Its molar entropy is 362.6 ± 0.8 J/K/mol.

Question: What about the molar entropy (170 K) of the same compound?
Answer: The molar entropy was 384.6 ± 0.9 J/K/mol.

Question: What about the molar entropy (180 K) of the same compound?
Answer: The molar entropy was 405.6 ± 0.9 J/K/mol.

Question: What about the molar entropy (190 K) of the same compound?
Answer: Its molar entropy is 426.3 ± 0.9 J/K/mol.

Question: And the molar entropy (200 K)?
Answer: The molar entropy was 446.6 ± 1 J/K/mol.

Question: And the molar entropy (210 K)?
Answer: The molar entropy was 466.8 ± 1 J/K/mol.

Question: What about the molar entropy (220 K) of the same compound?
Answer: Its molar entropy is 486.7 ± 1 J/K/mol.

Question: What about the molar entropy (230 K) of the same compound?
Answer: The molar entropy was 506.4 ± 1.1 J/K/mol.

Question: What about the molar entropy (240 K) of the same compound?
Answer: The molar entropy was 526 ± 1.1 J/K/mol.

Question: What about the molar entropy (250 K) of the same compound?
Answer: Its molar entropy is 545.3 ± 1.1 J/K/mol.

Question: What about the molar entropy (260 K) of the same compound?
Answer: The molar entropy was 564.5 ± 1.1 J/K/mol.

Question: And the molar entropy (270 K)?
Answer: Its molar entropy is 583.5 ± 1.2 J/K/mol.

Question: And the molar entropy (280 K)?
Answer: The molar entropy was 602.3 ± 1.2 J/K/mol.

Question: And the molar entropy (290 K)?
Answer: Its molar entropy is 621.1 ± 1.2 J/K/mol.

Question: What about the molar entropy (298.15 K) of the same compound?
Answer: Its molar entropy is 636.3 ± 1.3 J/K/mol.

Question: And the molar entropy (300 K)?
Answer: Its molar entropy is 639.7 ± 1.3 J/K/mol.

Question: And the molar entropy (310 K)?
Answer: The molar entropy was 658.3 ± 1.3 J/K/mol.

Question: What about the molar entropy (320 K) of the same compound?
Answer: Its molar entropy is 676.9 ± 1.3 J/K/mol.

Question: And the molar entropy (330 K)?
Answer: The molar entropy was 695 ± 1 J/K/mol.

Question: What about the molar entropy (340 K) of the same compound?
Answer: The molar entropy was 714 ± 1 J/K/mol.

Question: And the molar entropy (350 K)?
Answer: The molar entropy was 732 ± 2 J/K/mol.

Question: What about the molar entropy (360 K) of the same compound?
Answer: Its molar entropy is 750 ± 2 J/K/mol.

Question: What about the molar entropy (370 K) of the same compound?
Answer: The molar entropy was 768 ± 2 J/K/mol.

Question: What about the molar entropy (380 K) of the same compound?
Answer: Its molar entropy is 786 ± 2 J/K/mol.

Question: And the molar entropy (390 K)?
Answer: Its molar entropy is 804 ± 2 J/K/mol.

Question: What about the molar entropy (400 K) of the same compound?
Answer: Its molar entropy is 821 ± 2 J/K/mol.
